Measurements published in US7629318B2, “Immunosuppressant compounds, methods and uses related thereto” (priority 2002, dated 2009).
Where “and” joins values, the source holds several entries; their conditions need not be identical. Equal values may be shown once. Numbered stars: 1 amine (or outer) side, 2 acyl side, 3 side chain; on linkers, the order of the positions; unused ones are H or OH. Square brackets hold non-standard residues; d marks the D form. Peptide text beside a SMILES is read from it. ξ: configuration not given here. Gly(1-amidinopiperidin-4-yl) = N=C(N)N1CCC([C@H](N)C(=O)O)CC1; X1 = CC(C)c1oc([C@H](CO)N[*:1])nc1C(=O)[*:2]; Pro(3R-Ph) = O=C(O)[C@H]1NCC[C@@H]1c1ccccc1; Met(O) = CS(=O)CC[C@H](N)C(=O)O; Tic = O=C(O)[C@@H]1Cc2ccccc2CN1; Cha = N[C@@H](CC1CCCCC1)C(=O)O; ξDisc = O=C(O)C1NCc2ccccc21

Key:
[1] = Stability of compounds in mouse blood plasma; type: in vitro ADME
Procedure, shortened: (§1)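 Compounds at 5 μM final in rat, mouse or human plasma, incubated at 37 °C and sampled at 0, 6 and 24 h. Proteins precipitated with acetonitrile and the supernatant dried and reconstituted in 50% acetonitrile/0.1% TFA. PBS controls run for unstable compounds.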

[2] = biological target: DR4Dw4 (DRA1*0101 DRB1*0401) (Homo sapiens, UniProt P01903+P01911, A100K/A169T/F76Y/I96L/K127E/L162R/M171V/N62H/P40V/Q125Y/R42H/S133A/S149N/S66Y/V115G/V209L/W38E); experiment: Competitive binding to MHC-II protein DR4Dw4
Procedure, shortened: (§2)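 Each MHC-II allele incubated with compound 16 hours at room temperature in duplicate; controls lacked compound, or both compound and MHC-II. Complexes captured 2 h at 4 °C, bound biotinylated peptide detected via europium-streptavidin and DELFIA enhancement, time-resolved fluorescence read at ex 340/em 613 (615) nm.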

[3] = Stability of compounds in human blood plasma; type: in vitro ADME
Procedure, shortened: as §1

[4] = biological target: DR4Dw14 (DRA1*0101 DRB1*0404) (Homo sapiens, UniProt P01903+P01911, A100R/A169T/F76Y/I96L/K127E/L162R/M171V/N62H/P40V/Q125Y/R42H/S133A/S149N/S66Y/V209L/W38E); experiment: Competitive binding to MHC-II protein DR4Dw14; settings: 0404; read-out: Protein binding IC50 (nM) 0404
Procedure, shortened: as §2

[5] = biological target: T1, Priess (DR4Dw4: DRA1*0101 DRB1*0401) cells (Homo sapiens, UniProt P01903+P01911, A100K/A169T/F76Y/I96L/K127E/L162R/M171V/N62H/P40V/Q125Y/R42H/S133A/S149N/S66Y/V115G/V209L/W38E); experiment: Competitive binding to MHC II proteins expressed on Priess cells; type: cell-based
T1 construct: MHC II Proteins Expressed on PRIESS and LG2 Cells; endogenous in cells; host or cells: Priess cells
Protocol: (§3) For use in the binding assay the cells were re-suspended in medium containing 1% FCS at a density of 2.5×10^6 cells/ml.
(§4) The assay was performed in sterile 96 well polystyrene microtiter plates. A 10 fold dilution series of compounds (16 nM-1615 μM) in 1% FCS was prepared from 5 or 10 mM compound stock solutions in 10% DMSO/water. 50 μl of each compound dilution were added in duplicates to 50 μl of a 16 μM solution of indicator peptide in 1% FCS. Cell binding was initiated by adding 100 μl of 2.5×10^6 cells/ml 1% FCS to each well. Controls were included containing the DMSO concentration present in the solution with the highest compound concentration. The cells were incubated at 37° C., 6% CO2. After 4 hours the cells were washed with 200 μl PBS and lysed in 200 μl lysis buffer (50 mM sodium phosphate, 150 mM sodium chloride, 1% (w/v) NP-40, 25 mM iodoacetamide, 1 mM PMSF, 3.1% protease inhibitor cocktail: 0.32 g/l of Chymostatin, Antipain, Pepstatin A, Soybean trypsin inhibitor and Leupeptin each, pH 7.5) for 10 min.
(§5) After washing with PBS, 190 μl of cell lysate were transferred to the appropriate wells of the capture plate and incubated for 2 h at 4° C. The wells were washed six times with 200 μl/well cooled (4 to 8° C.) of 1×DELFIA wash (Wallac-ADL-GmbH, Freiburg), incubated with 100 μl of cooled Europium-streptavidin conjugate (Wallac-ADL-GmbH, Freiburg; diluted 1/1000 with DELFIA assay buffer) for 30 minutes at 4° C., again washed six times with cooled 1×DELFIA wash and, finally, incubated with 200 μl cooled DELFIA enhancement solution (Wallac-ADL-GmbH, Freiburg) for one hour at room temperature before reading the time-resolved europium fluorescence at λex Eu^3+: 340 nm and λem Eu^3+: 613 (615) nm (Wallac Victor^2 1420 Multilabel Counter, Wallac-ADL-GmbH, Freiburg).

[6] = test system: T-cell proliferation, DR14-LN
[7] = biological target: Cathepsin B1 (EC 3.4.22.1 from bovine spleen) (Bos taurus, UniProt P07688); settings: Cathepsin B, 4 h
[8] = biological target: T2, LG2 (DR1: DRA1*0101 DRB1*0101) cells (Homo sapiens, UniProt P01903+P01911, A100R/D57E/F55L/F60I/F76Y/I96L/L162R/M171V/P40L/Q125E/R42F/V115G/Y59C); experiment: Competitive binding to MHC II proteins expressed on LG2 cells; type: cell-based; settings: Cell binding IC50 (uM) LG2 (0101), LG2 (0101)
T2 construct: MHC II Proteins Expressed on PRIESS and LG2 Cells; endogenous in cells; host or cells: LG2 cells
Protocol: as §3, §4, §5

[9] = Stability of compounds in rat blood plasma; type: in vitro ADME
Procedure, shortened: as §1

[10] = biological target: Cathepsin D (EC 3.4.23.5 from bovine spleen) (Bos taurus, UniProt P80209)
Protocol: The stability of the peptidomimetic compounds towards lysosomal degradation was examined by incubation with Cathepsin B1 (EC 3.4.22.1 from bovine spleen; Sigma-Aldrich, Taufkirchen; dissolved at 10000 U/l in ddH2O) and D (EC 3.4.23.5 from bovine spleen; Sigma-Aldrich, Taufkirchen; dissolved at 10000 U/l in ddH2O) for four hours at 37° C. using a compound concentration of 50 μM and an enzyme/substrate ratio of 0.4 U/μmol. The samples contained 25 ppm 4-isopropyl benzyl alcohol (IPBA; Sigma-Aldrich, Taufkirchen) as internal standard.
Assay buffer was prepared by adding 35 μl of a 1% IPBA in DMSO solution and 28 μl of a 10000 U/l Cathepsin B1 or Cathepsin D stock solution to 14 ml of 100 mM sodium acetate, 1 mM EDTA, 1 mM DTT, pH 5.00 or 100 mM sodium acetate, pH 4.50, respectively. 8.8 μl of a 5 mM (or 4.4 μl of a 10 mM) compound stock solution (in 10% DMSO/water) were placed into a 1.5 ml Eppendorf tube. The reaction was started by adding 875 μl fully supplemented assay buffer to each tube, whirlmixing and incubation at 37° C. At 0 and 4 hours 400 μl samples were taken and the enzyme was inactivated by addition of 40 μl […] TFA aq. The samples were kept frozen at −20° C. until analysis by RP-HPLC (200 μl injection volume; Nucleosil 100-5 C18, 12.5×4.6 cm; Gradient: 20-50% acetonitrile in 30 min).
Compounds co-eluting with the internal standard during RP-HPLC analysis were tested without the standard as Example 16.

[11] = biological target: DR1 (DRA1*0101 DRB1*0101) (Homo sapiens, UniProt P01903+P01911, A100R/D57E/F55L/F60I/F76Y/I96L/L162R/M171V/P40L/Q125E/R42F/V115G/Y59C); experiment: Competitive binding to MHC-II protein DR1; settings: Protein binding IC50 (nM) 0101, 0101
Procedure, shortened: as §2

Row | SMILES | Stability (Arbitrary units) Mouse 6 h [1] | Stability (Arbitrary units) Mouse 24 h [1] | IC50 [2] | Stability (Arbitrary units) Human 6 h [3] | Stability (Arbitrary units) Human 24 h [3] | IC50 [4] | IC50 [5] | Immunsupressive assays DR14-LN (Max) % Inhibition ([6]; maximal inhibition) | IC50 ([6]; read-out: Immunsupressive assays DR14-LN (IC50)) | Stability (Arbitrary units) Cath B 4 h [7] | IC50 [8] | Stability (Arbitrary units) Rat 6 h [9] | Stability (Arbitrary units) Rat 24 h [9] | Stability (Arbitrary units) Cath D 4 h [10] | IC50 [11]
1 | CSCC[C@H](NC(=O)[C@@H]1Cc2ccccc2CN1C(=O)[C@@H](NC(=O)[C@H](CC1CCCCC1)NC(C)=O)C1CCN(C(=N)N)CC1)C(=O)N1CC[C@H](c2ccccc2)[C@H]1C(N)=O [Compound P80, Ac-Cha-Gpg-Tic-Met-βPhProNH2] (Ac-[Cha][Gly(1-amidinopiperidin-4-yl)][Tic]M[Pro(3R-Ph)]-NH2) | 106 Arbitrary units | 123 Arbitrary units | 0.67 µM | 139 Arbitrary units | 134 Arbitrary units | 470 nM | 2.7 µM | 88% | 94 µM | 90 Arbitrary units | 2.7 µM | 102 Arbitrary units | 39 Arbitrary units | 84 Arbitrary units | 550 nM
2 | CSCC[C@H](NC(=O)[C@@H]1Cc2ccccc2CN1C(=O)[C@@H](NC(=O)[C@H](CC1CCCCC1)NC(C)=O)C1CCN(C(=N)N)CC1)C(N)=O [Compound P67, Ac-Cha-Gpg-Tic-Met-NH2] (Ac-[Cha][Gly(1-amidinopiperidin-4-yl)][Tic]M-NH2) | 71 Arbitrary units | 16 Arbitrary units | 0.41 µM | 97 Arbitrary units | 100 Arbitrary units | 1060 nM and 1080 nM | 4.5 µM | – | – | 58 Arbitrary units | 4.5 µM | 10 Arbitrary units | 34 Arbitrary units | 113 Arbitrary units | 120 nM
3 | CC(=O)N[C@@H](CC1CCCCC1)C(=O)N[C@@H](CCCNC(=N)N)C(=O)N1Cc2ccccc2C[C@H]1C(=O)N[C@@H](CC[S+](C)[O-])C(=O)N1CC[C@H](c2ccccc2)[C@H]1C(=O)N[C@@H](CO)c1nc(C(=O)N(C)C)c(C(C)C)o1 (stereo partly drawn) [Compound P43, Ac-Cha-Arg-Tic-Met(O)-βPhPro-[S(oxaz)L]-NMe2] (Ac-[Cha]R[Tic][Met(O)][Pro(3R-Ph)][X1]-NMe2) | 96 Arbitrary units | 82 Arbitrary units | 0.32 µM | 134 Arbitrary units | 131 Arbitrary units | 1700 nM | 3.1 µM | – | – | 96 Arbitrary units | 13 µM | 96 Arbitrary units | 71 Arbitrary units | 101 Arbitrary units | 380 nM
4 | CSCC[C@H](NC(=O)C1c2ccccc2CN1C(=O)[C@H](CCCNC(=N)N)NC(=O)[C@H](CC1CCCCC1)NC(C)=O)C(=O)N1CC[C@H](c2ccccc2)[C@H]1C(=O)N[C@@H](CO)c1nc(C(=O)N(C)C)c(C(C)C)o1 (stereo partly drawn) [Compound P40-1, Ac-Cha-Arg-Disc-Met-βPhPro-[S(oxaz)L]NMe2] (Ac-[Cha]R[ξDisc]M[Pro(3R-Ph)][X1]-NMe2) | – | – | 0.27 µM | 108 Arbitrary units | 103 Arbitrary units | 98 nM | 3 µM | – | – | 99 Arbitrary units | 8 µM | 111 Arbitrary units | 71 Arbitrary units | 93 Arbitrary units | 140 nM
